We go through two molecules from US20130237478A1, “COMPOSITIONS AND METHODS FOR TREATMENT OF PERIPHERAL VASCULAR DISEASE” (TARIX PHARMACEUTICALS LTD., priority 2012, published 2013).

The nature of data set [1]: Body weight of mice in hind limb ischemia studies. The format is in vivo, Balb/c mice. Conditions: Example 1; 500 μg/kg SC daily; throughout the study (49 days). The method, then:
Body weight of animals was measured before the surgery and once weekly thereafter.
The model and procedures used for this example is the same as for those in Examples 1 and 2, unless otherwise specified.

Data set [2] concerns Transient middle cerebral artery occlusion (tMCAO). Put plainly: Stepping test (forelimb akinesia) after tMCAO stroke. Format: in vivo, rats. How it is done:
(§1) For the purposes of this example, Transient middle cerebral artery occlusion (tMCAO) procedure Day is defined as “Day 1” in this study. On the day of surgery anesthesia were induced with 4% isoflurane in a mixture of 70% N2O and 30% O2 and maintained with 1.5-2% isoflurane.
The tMCAO procedures were performed according to the method described R. Schmid-Elsaesser et al. Briefly, the right CCA (Common Carotid Artery) was exposed through a midline neck incision and carefully dissected free from surrounding nerves and fascia—from its bifurcation to the base of the skull. The occipital artery branches of the ECA (External Carotid Artery) were then isolated, and these branches were dissected and coagulated. The ECA was dissected further distally and coagulated along with the terminal lingual and maxillary artery branches, which was then divided. The ICA (Internal Carotid Artery) was isolated and carefully separated from the adjacent vagus nerve, and the pterygopalatine artery was ligated close to its origin with a 5-0 nylon suture (SMI, Belgium). Next, a 4-0 silk suture was tied loosely around the mobilized ECA stump, and a 4 cm length of 4-0 monofilament nylon suture (the tip of the suture was blunted by using a flame, and the suture was coated with polylysine, prior to insertion) was inserted through the proximal ECA into the ICA and thence into the circle of Willis, effectively occluding the MCA. The surgical wound was closed and the animals were returned to their cages to recover from anesthesia. […]
Animals were tested for forelimb akinesia in a stepping test (ST). The animal was held with its hind limbs fixed with one hand and the forelimb not to be monitored with the other, while the unrestrained fore-paw touches the table. The number of adjusting steps are counted while the animal is moved sideways along the table surface (85 cm in approximately five seconds), in the forehand & backhand direction for both forelimbs. […]

Data set [3] has the same test system. Put plainly: Forelimb placement test after tMCAO stroke. Format: in vivo, rats. Conditions: 50 μg/kg by Alzet pump; particularly on Days 21 and 35. How it is done: as §1
The tMCAO procedures were performed according to the method described R. Schmid-Elsaesser et al. Briefly, the right CCA (Common Carotid Artery) was exposed through a midline neck incision and carefully dissected free from surrounding nerves and fascia—from its bifurcation to the base of the skull. The occipital artery branches of the ECA (External Carotid Artery) were then isolated, and these branches were dissected and coagulated. The ECA was dissected further distally and coagulated along with the terminal lingual and maxillary artery branches, which was then divided. The ICA (Internal Carotid Artery) was isolated and carefully separated from the adjacent vagus nerve, and the pterygopalatine artery was ligated close to its origin with a 5-0 nylon suture (SMI, Belgium). […]
For the forelimb-placing test, the rat was held close to a tabletop and the rat's ability to place the forelimb on the tabletop in response to whisker, visual, tactile, or proprioceptive stimulation was scored (0=normal, 12=maximally impaired). […]

Data set [4] has the same test system. The data set can be described thus: tMCAO stroke model, overall comparison of results. The format is in vivo, rats. Conditions: Linear PanCyte dose at least ten times lower than PanCyte.
Excerpt: Without wishing to be held to a particular theory, it is possible that angiotensin-(1-7) peptides or functional equivalents, analogs or derivatives, and/or angiotensin-(1-7) receptor agonists such as TXA127, PanCyte and Linear PanCyte act to stimulate blood flow and tissue repair through angiogenesis. Such a mode of action would be extremely beneficial in a critical limb ischemia scenario since these conditions have deprivation of blood supply as a major source of pathology.
as §1
The tMCAO procedures were performed according to the method described R. Schmid-Elsaesser et al. Briefly, the right CCA (Common Carotid Artery) was exposed through a midline neck incision and carefully dissected free from surrounding nerves and fascia—from its bifurcation to the base of the skull. The occipital artery branches of the ECA (External Carotid Artery) were then isolated, and these branches were dissected and coagulated. The ECA was dissected further distally and coagulated along with the terminal lingual and maxillary artery branches, which was then divided. […]

For data set [5] the test system is unchanged. Put plainly: Body swing test after tMCAO stroke. The settings on record: 50 μg/kg by Alzet pump. The format is in vivo, rats. How it is done:
as §1
The tMCAO procedures were performed according to the method described R. Schmid-Elsaesser et al. Briefly, the right CCA (Common Carotid Artery) was exposed through a midline neck incision and carefully dissected free from surrounding nerves and fascia—from its bifurcation to the base of the skull. The occipital artery branches of the ECA (External Carotid Artery) were then isolated, and these branches were dissected and coagulated. The ECA was dissected further distally and coagulated along with the terminal lingual and maxillary artery branches, which was then divided. The ICA (Internal Carotid Artery) was isolated and carefully separated from the adjacent vagus nerve, and the pterygopalatine artery was ligated close to its origin with a 5-0 nylon suture (SMI, Belgium). Next, a 4-0 silk suture was tied loosely around the mobilized ECA stump, and a 4 cm length of 4-0 monofilament nylon suture (the tip of the suture was blunted by using a flame, and the suture was coated with polylysine, prior to insertion) was inserted through the proximal ECA into the ICA and thence into the circle of Willis, effectively occluding the MCA. The surgical wound was closed and the animals were returned to their cages to recover from anesthesia. One hour and a half after occlusion rats were re-anesthetized, the monofilament was withdrawn to allow reperfusion, the surgical wound was closed and rats were returned to their cages.
Animals were subjected to a modified Modified Neurological Rating Scale (mNRS) at 24 hours post reperfusion. Only animals with an overall score of ≧10 were included in this study. Animals were allocated into the test groups, according to the mNRS results on day 2, in order to have similar distribution of rats performance between groups. Starting on day 2, 24 hours post-surgery, animals in groups 4, 5 and 7 were implanted subcutaneously with an osmotic Alzet pump and treated with either 500 μg/kg TXA127, 500 μg/kg PanCyte, or 50 μg/kg Linear PanCyte. Animals in groups 2, 3 and 6 received 500 μg/kg or 1,000 μg/kg TXA127 or 500 μg/kg PanCyte, administered subcutaneously via daily injection. Animals in group 1 were treated with a daily subcutaneous injection of a PBS (vehicle).
Each rat was held approximately one inch from the base of its tail. It was then elevated to an inch above a surface of a table. The rat was held in the vertical axis, defined as no more than 10° to either the left or the right side. A swing was recorded whenever the rat moves its head out of the vertical axis to either side. Before attempting another swing, the rat must return to the vertical position for the next swing to be counted. Twenty (20) total swings were counted. A normal rat typically has an equal number of swings to either side. Following focal ischemia, the rat tends to swing to the contralateral side (left side in this case). Body swing scores are expressed as a percentage of […] over total swings.

On to `CC[C@H](C)[C@H](NC(=O)[C@H](Cc1ccc(O)cc1)NC(=O)[C@@H](NC(=O)[C@H](CCCNC(=N)N)NC(=O)[C@@H](N)CC(=O)O)C(C)C)C(=O)N[C@@H](Cc1c[nH]cn1)C(=O)N1CCC[C@H]1C(=O)O` [TXA127, Asp^1-Arg^2-Val^3-Tyr^4-Ile^5-His^6-Pro^7 (SEQ ID NO: 1)], for which the “body weight vs vehicle” value in data set [1] is listed as “no statistically significant differences”.

“Asp^1-Arg^2-Val^3-Ser^4-Ile^5-His^6-Cys^7 (SEQ ID NO:5) (DRVSIHC) [Linear PanCyte]”: the “stepping test results compared with TXA127 or PanCyte” value in data set [2] (50 μg/kg by Alzet pump) is on record as “substantially equivalent to ten times as much TXA127 or PanCyte”. The “stepping test performance vs vehicle” value in data set [2] (all experimental conditions (Table 22), by Day 28 post-surgery) is listed as “significantly improved the performance”. Moreover, the “forelimb placement performance compared with other groups” value in data set [3] is given as “best performance”. In addition, in data set [4], the “results in stroke model compared with PanCyte” value is “at least as impressive as PanCyte and in many cases even more impressive results”. In addition, the body swing performance result in data set [5] (by Day 21) is recorded as “showed improvement”. The “body swing performance vs vehicle” value in data set [5] (by Day 28) is “significant improvement in performance”.
